This note sets out measurements from US10799501B2, “Combination of an inhibitor of PARP with an inhibitor of GSK-3 or DOT1L” (King's College London, priority 2015, dated 2020).

Experiment [1] concerns MLL-AF9 leukemic cells (wild type). Kind of experiment: C57Bl/6 mice transplanted with wild type MLL-AF9 leukemic cells, Olaparib treatment. Type of experiment: in vivo, mouse. Conditions: Olaparib 50 mg/kg daily. The protocol:
For Hoxa9 KO studies, we intravenously injected […] MLL-AF9 leukemic cells (wild type or Hoxa9−/− background) together with 2×10^5 bone marrow rescue cells into lethally irradiated C57Bl/6 mice (2 doses of irradiation 550 RADS each) for disease development. For drug studies, the control cohort received vehicle (10% 2-Hydroxpropyl-beta-cyclodextrin, HBC, Sigma-Aldrich) and the PARPi treatment group received daily Olaparib 50 mg/kg in 10% HBC for two-four weeks.

In experiment [2] the test system is AML1-ETO transformed cells. Kind of experiment: In vitro drug treatment of primary murine hematopoietic cells transformed by AML1-ETO (RTTA). Type of experiment: cell-based, mouse. Here is the method:
Transduction using concentrated viral supernatant expressing the oncogene of interest was carried out by centrifugation (spinoculation) at 800 g at 32° C. for 2 hours in the presence of 5 μg ml^-1 polybrene (Sigma-Aldrich). Cells were subsequently plated in 1% methylcellulose medium ([…]; Stem Cell Technologies) containing 20 ngml^-1 SCF, 10 ngml^-1 IL-3, 10 ngml^-1 IL-6 and 10 ngml^-1 granulocyte macrophage colony-stimulating factor (GM-CSF) and appropriate selection antibiotic. Colonies were counted after 7 days of culture and replated every 6-7 days at 5×103-1.5×10^4 cell density. Re-plating was performed weekly to generate primary cell lines for further analysis. After the third or fourth round of plating, cells were cultured in R20/20 medium (RPMI 1640, 20% FCS, 20% WEHI-conditioned medium, 2 mM L-glutamine, 100 U/ml penicillin, and 100 μg/ml streptomycin) supplemented with 20 ngml^-1 stem cell factor (SCF), 10 ngml^-1 interleukin (IL)-3, and 10 ngml^-1 IL-6 to establish cell lines. All recombinant murine cytokines were from PeprotechEC. […] Colonies were scored 6-7 days after plating. For other in vitro studies, mouse leukemic cells and primary AML cell lines were subjected to continuously Olaparib (1 μM) or LiCl (8 mM) treatment in liquid culture for whole duration as indicated in the figures or figure legends. For human leukemic cell lines, experiments were performed as described above with 5 μM Olaparib. Cells were cytospun onto a glass slide at 400 g for 5 minutes and then fixed for 10 minutes with 2% formaldehyde/0.2% glutaraldehyde (Sigma Aldrich). Cells were then washed with PBS, and then incubated at 37° C. for at least 2 hours with a staining solution (30 mM Citric Acid/Phosphate buffer, 5 mM K4Fe(CN)6, 5 mM K3Fe(CN)6, 150 mM NaCl, 2 mM MgCl2, 1 mg/ml X-Gal) (All reagents from Sigma-Aldrich)62. Cells were counted in at least 5 fields for each slide, for a total of over 100 cells. The percentage of senescent cells was calculated by the percentage of the number of blue cell in the field. Cells were cytospun onto a glass slide at 400 g for 5 minutes and then fixed for 30 minutes in 4% PFA and permeabilized and blocked in 0.8% Tx-100, 10% FBS/1% BSA (Sigma-Aldrich) in PBS for 15 min at room temperature. Mouse anti mouse γH2AX ([…]) (Upstate clone JBW301#05-636) and rabbit anti mouse RAD51 (Santa Cruz Biotecnology […]# sc-8349) were diluted in TBS containing 10% FBS/1% BSA and incubated overnight at 4C. […] Slides were then washed five times at 10 min each with PBS. Slides were briefly washed in water and air-dried prior to mounting with Mowiol-DABCO and a coverslip. Cells were counted in at least 5 fields for each slide, for a total of over 100 cells per condition. 1×10^5 cells were cytospun for 5 min at 300 g onto glass slides. Slides were then stained with May-Grunwald solution (Sigma-Aldrich) for 3 min at room temperature. After washing in water, they were incubated for 20 min in Giemsa solution (Sigma-Aldrich) (1:20 in water). Slides were washed again in water before being mounted with Mowiol. Cells were counted in at least 5 fields for each slide, for a total of over 100 cells per condition. NBT reduction assay were performed to determine myeloid differentiation. […] Cells were then washed in PBS and the differentiated cells were indicated by the deposition of dark blue insoluble formazan (NBT positive cells) and the percentage of differentiated cells were counted under microscopy. At least 200 cells were counted in most of the cases.

The test system of experiment [3] is E2A-PBX transformed cells. Put plainly: In vitro drug treatment of primary murine hematopoietic cells transformed by E2A-PBX (RTTA). Type of experiment: cell-based, mouse. Here is the method: Transduction using concentrated viral supernatant expressing the oncogene of interest was carried out by centrifugation (spinoculation) at 800 g at 32° C. for 2 hours in the presence of 5 μg ml^-1 polybrene (Sigma-Aldrich). Cells were subsequently plated in 1% methylcellulose medium ([…]; Stem Cell Technologies) containing 20 ngml^-1 SCF, 10 ngml^-1 IL-3, 10 ngml^-1 IL-6 and 10 ngml^-1 granulocyte macrophage colony-stimulating factor (GM-CSF) and appropriate selection antibiotic. Colonies were counted after 7 days of culture and replated every 6-7 days at 5×103-1.5×10^4 cell density. Re-plating was performed weekly to generate primary cell lines for further analysis. After the third or fourth round of plating, cells were cultured in R20/20 medium (RPMI 1640, 20% FCS, 20% WEHI-conditioned medium, 2 mM L-glutamine, 100 U/ml penicillin, and 100 μg/ml streptomycin) supplemented with 20 ngml^-1 stem cell factor (SCF), 10 ngml^-1 interleukin (IL)-3, and 10 ngml^-1 IL-6 to establish cell lines. All recombinant murine cytokines were from PeprotechEC. […] Colonies were scored 6-7 days after plating. For other in vitro studies, mouse leukemic cells and primary AML cell lines were subjected to continuously Olaparib (1 μM) or LiCl (8 mM) treatment in liquid culture for whole duration as indicated in the figures or figure legends. For human leukemic cell lines, experiments were performed as described above with 5 μM Olaparib. […] Cells were counted in at least 5 fields for each slide, for a total of over 100 cells. The percentage of senescent cells was calculated by the percentage of the number of blue cell in the field. […] Cells were counted in at least 5 fields for each slide, for a total of over 100 cells per condition. […] Cells were counted in at least 5 fields for each slide, for a total of over 100 cells per condition. […] Cells were then washed in PBS and the differentiated cells were indicated by the deposition of dark blue insoluble formazan (NBT positive cells) and the percentage of differentiated cells were counted under microscopy. At least 200 cells were counted in most of the cases.

Experiment [4] relates to MLL-AF9 Hoxa9−/− transformed cells. Kind of experiment: In vitro PARPi treatment of MLL-AF9 transformed cells from Hoxa9−/− background. Type of experiment: cell-based, mouse. Here is the method: Transduction using concentrated viral supernatant expressing the oncogene of interest was carried out by centrifugation (spinoculation) at 800 g at 32° C. for 2 hours in the presence of 5 μg ml^-1 polybrene (Sigma-Aldrich). Cells were subsequently plated in 1% methylcellulose medium ([…]; Stem Cell Technologies) containing 20 ngml^-1 SCF, 10 ngml^-1 IL-3, 10 ngml^-1 IL-6 and 10 ngml^-1 granulocyte macrophage colony-stimulating factor (GM-CSF) and appropriate selection antibiotic. Colonies were counted after 7 days of culture and replated every 6-7 days at 5×103-1.5×10^4 cell density. Re-plating was performed weekly to generate primary cell lines for further analysis. After the third or fourth round of plating, cells were cultured in R20/20 medium (RPMI 1640, 20% FCS, 20% WEHI-conditioned medium, 2 mM L-glutamine, 100 U/ml penicillin, and 100 μg/ml streptomycin) supplemented with 20 ngml^-1 stem cell factor (SCF), 10 ngml^-1 interleukin (IL)-3, and 10 ngml^-1 IL-6 to establish cell lines. All recombinant murine cytokines were from PeprotechEC. […] Colonies were scored 6-7 days after plating. […] Cells were counted in at least 5 fields for each slide, for a total of over 100 cells. The percentage of senescent cells was calculated by the percentage of the number of blue cell in the field.

The mark [5] stands for this setting: C57Bl6 mice succumbed with MLL-AF9 wild-type driven leukemia.

Take `O=C(c1cc(Cc2n[nH]c(=O)c3ccccc23)ccc1F)N1CCN(C(=O)C2CC2)CC1` [Olaparib, 4-[(3-[(4-cyclopropylcarbonyl)piperazin-4-yl]carbonyl)-4-fluorophenyl]methyl(2H)-phthalazin-1-one]: in experiment [1] (setting [5]), the “BM Engraftment (%)” value was 93.30 ± 9.257%, the “Disease Latency (days; median)” value was determined as 34 days, the “Hematopoietic Liver Engraftment (%)” value is recorded as 93.16 ± 6.838% and the “Hematopoietic Spleen Engraftment (%)” value turned out to be 86.85 ± 13.12%. In addition, in experiment [1] (setting [5]), the “Liver” value is on record as 4.204 ± 1.425 g and the “Spleen” value worked out at 0.9309 ± 0.3767 g. The “effect on mice transplanted with wild type MLL-AF9 leukemic cells (survival)” value in experiment [1] is “did not have any significant effect”. In addition, in experiment [2] (1 uM Olaparib, methylcellulose 7 days, p<0.001), the “suppression of colony forming ability” value is “about 90%”. Further, the “senescence (β-galactosidase staining)” value in experiment [2] (PARPi 24 hrs and 48 hrs) was “underwent significant senescence”. For the same compound, the “Rad51 recruitment to DNA damage sites (RAD51 foci)” value in experiment [2] (PARPi treatment for 6 hours) was “no significant Rad51 recruitment”. In experiment [2] (time course PARPi treatment), the “percentage of differentiation (morphology and NBT reduction)” value is “significantly increased the percentage of differentiation”. Besides, the “cells with γH2AX and Rad51 foci ratio greater than 2” value in experiment [2] (upon PARPi treatment) is reported as “around 80%”. The “impact on colony forming ability” value in experiment [3] (1 uM Olaparib, methylcellulose 7 days) is “little impact”. The “differentiation, G1 arrest, senescence, apoptosis effects” value in experiment [3] (PARPi treatment) was “none of these effects were observed”. For the same compound, the “Rad51 recruitment to DNA damage sites (RAD51 foci)” value in experiment [3] (PARPi treatment for 6 hours) is given as “able to form RAD51 foci”. Besides, the “senescence (β-galactosidase staining)” value in experiment [4] (48 hrs PARPi treatment) is reported as “induction of senescence”. Moreover, in experiment [4] (seven days in methylcellulose with PARPi), the “colony forming ability and differentiation” value is “significant suppression of colony forming ability and differentiation”.
